Experimental data as given in patent US20160108008A1, “Substituted N-(Tetrazol-5-yl)- and N-(Triazol-5-yl)arylcarboxamide Compounds and Their Use as Herbicides” (BASF SE, priority 2013, published 2016).
Marks after values point to notes of the source that are not given here.

What was measured:
Format in all cases: in vivo
[1] = test system: Abutilon theophrasti; assay: greenhouse pre-emergence treatment, ABUTH; conditions: pre-emergence (value labeled *), scale 0-100
Excerpt: (§1) The culture containers used were plastic flowerpots containing loamy sand with approximately 3.0% of humus as the substrate. The seeds of the test plants were sown separately for each species.
(§2) For the pre-emergence treatment, the active ingredients, which had been suspended or emulsified in water, were applied directly after sowing by means of finely distributing nozzles. The containers were irrigated gently to promote germination and growth and subsequently covered with transparent plastic hoods until the plants had rooted. This cover caused uniform germination of the test plants, unless this has been impaired by the active ingredients.
(§3) Depending on the species, the plants were kept at 10-25° C. or 20-35° C. The test period extended over 2 to 4 weeks. During this time, the plants were tended, and their response to the individual treatments was evaluated.
(§4) Evaluation was carried out using a scale from 0 to 100. 100 means no emergence of the plants, or complete destruction of at least the aerial moieties, and 0 means no damage, or normal course of growth. A good herbicidal activity is given at values of at least 70 and a very good herbicidal activity is given at values of at least 85.
(§5) The plants used in the greenhouse experiments belonged to the following species:
(§6) Following representative compounds of formula I according to Table 9 were used in post-emergence treatments in greenhouse experiments (values labeled with * result from pre-emergence experiments): […]

[2] = test system: Chenopodium album; assay: greenhouse post-emergence treatment, CHEAL; conditions: scale 0-100
Excerpt: as §1
(§7) For the post-emergence treatment, the test plants were first grown to a height of 3 to 15 cm, depending on the plant habit, and only then treated with the active ingredients which had been suspended or emulsified in water. For this purpose, the test plants were either sown directly and grown in the same containers, or they were first grown separately as seedlings and transplanted into the test containers a few days prior to treatment.
as §3, §4, §5, §6

[3] = test system: Polygonum convolvulus; assay: greenhouse post-emergence treatment, POLCO; conditions: scale 0-100
Excerpt: as §1, §7, §3, §4, §5, §6

[4] = test system: Amaranthus retroflexus; assay: greenhouse post-emergence treatment, AMARE; conditions: scale 0-100
Excerpt: as §1, §7, §3, §4, §5, §6

[5] = test system: Echinochloa crus-galli; assay: greenhouse post-emergence treatment, ECHCG; conditions: scale 0-100
Excerpt: as §1, §7, §3, §4, §5, §6

[6] = test system: Abutilon theophrasti; assay: greenhouse post-emergence treatment, ABUTH; conditions: 1000 g/ha, scale 0-100
Excerpt: as §1, §7, §3, §4
(§8) The plants used in the greenhouse experiments belonged to the following species: […]

[7] = test system: Alopecurus agrestis; assay: greenhouse post-emergence treatment, ALOMY; conditions: 250 g/ha, scale 0-100
Excerpt: as §1, §7, §3, §4, §8

[8] = test system: Setaria viridis; assay: greenhouse post-emergence treatment, SETVI; conditions: scale 0-100
Excerpt: as §1, §7, §3, §4, §8

[9] = test system: Echinochloa crus-galli; assay: greenhouse pre-emergence treatment, ECHCG; conditions: pre-emergence (value labeled *), scale 0-100
Excerpt: as §1, §2, §3, §4, §8

[10] = test system: Agrostis spica-venti; assay: greenhouse pre-emergence treatment, APESV; conditions: pre-emergence (value labeled *), 500 g/ha; scale 0-100
Excerpt: as §1, §2, §3, §4, §5, §6

Structure (SMILES)	[%] damage to weed I (ABUTH) ([1]; 250 g/ha)	[%] damage to weed VI (CHEAL) ([2]; 250 g/ha) [%]	[%] damage to weed IX (POLCO) ([3]; 250 g/ha) [%]	[%] damage to weed III (AMARE) ([4]; 250 g/ha) [%]	[%] damage to weed VI (CHEAL) ([2]; 500 g/ha) [%]	[%] damage to weed III (AMARE) ([4]; 500 g/ha) [%]	further results
CC[S+]([O-])c1c(Cl)cc(F)c(C(=O)Nc2nnnn2C)c1Cl (stereo not shown) [compound 16, 2,4-Dichloro-3-ethylsulfinyl-6-fluoro-N-(1-methyltetrazol-5-yl)benzamide]	100* %	100	100	100	–	–	–
CCOc1c(Cl)cc(F)c(C(=O)Nc2nnnn2C)c1Cl [compound 18]	100* %	100	–	85	–	–	[%] damage to weed VII (ECHCG) ([5]; 250 g/ha): 98%
CSc1c(F)cc(C(=O)Nc2nnnn2C)c(C)c1SC [compound 67]	–	–	–	–	–	–	[%] damage to weed VII (ECHCG) ([5]; 1000 g/ha): 100%; [%] damage to weed I (ABUTH) [6]: 100%
Cn1nnnc1NC(=O)c1c(F)cc(Cl)c([S+](C)[O-])c1Cl (stereo not shown) [cpd. 6]	–	100	–	–	–	–	[%] damage to weed II (ALOMY) [7]: 100%; [%] damage to weed XI (SETVI) ([8]; 250 g/ha): 100%
CCSc1c(Cl)cc(F)c(C(=O)Nc2nnnn2C)c1Cl [compound 12, 2,4-dichloro-3-ethylsulfanyl-6-fluoro-N-(1-methyltetrazol-5-yl)benzamide]	100* %	100	100	100	–	–	–
CCS(=O)(=O)c1c(Cl)cc(F)c(C(=O)Nc2nnnn2C)c1Cl [compound 13, 2,4-Dichloro-3-ethylsulfonyl-6-fluoro-N-(1-methyltetrazol-5-yl)benzamide]	100* %	100	100	100	–	–	–
COCCn1nnnc1NC(=O)c1c(F)cc(Cl)c(S(C)(=O)=O)c1Cl [compound 76]	–	100	–	100	–	–	[%] damage to weed VII (ECHCG) ([9]; 250 g/ha): 100* %; [%] damage to weed VII (ECHCG) ([5]; 250 g/ha): 100; %
COCCOc1ccc(Cl)c(C(=O)Nc2nnnn2C)c1Cl [compound 86]	–	–	–	–	100	100	[%] damage to weed I (ABUTH) ([1]; 500 g/ha): 65* %; [%] damage to weed IV (APESV) [10]: 98* %; [%] damage to weed VII (ECHCG) ([5]; 500 g/ha): 98%
COCCOc1c(Cl)cc(F)c(C(=O)Nc2ncnn2C)c1Cl [compound 69]	100* %	100	98	98	–	–	–
CCn1nnnc1NC(=O)c1c(F)cc(Cl)c(OCCOC)c1Cl [compound 71]	100* %	100	–	98	–	–	[%] damage to weed VII (ECHCG) ([5]; 250 g/ha): 80%
CCS(=O)(=O)c1c(Cl)cc(F)c(C(=O)Nc2ncnn2C)c1Cl [compound 15]	–	–	–	–	100	100	[%] damage to weed IV (APESV) [10]: 98* %; [%] damage to weed IX (POLCO) ([3]; 500 g/ha): 98%
Cc1c(C(=O)Nc2nnnn2C)cc(F)cc1S(C)(=O)=O [compound 7]	–	–	–	–	100	100	[%] damage to weed XI (SETVI) ([8]; 500 g/ha): 100%
CCOc1c(Cl)cc(F)c(C(=O)Nc2ncnn2C)c1Cl [compound 17]	–	–	–	–	100	100	[%] damage to weed VII (ECHCG) ([9]; 500 g/ha): 85* %; [%] damage to weed VII (ECHCG) ([5]; 500 g/ha): 98; %
